Laboratory results from patent publication US5422359A, “α-aminoketone derivatives” (Mitsubishi Kasei Corporation, priority 1992, dated 1995).

Molecular target: T1, m-calpain (Rattus norvegicus, UniProt Q07009)
T1 construct: m-calpain was purified from a brain of rat; from tissue; host or cells: rat brain
T1 sequence (Q07009 20-700 limits assumed): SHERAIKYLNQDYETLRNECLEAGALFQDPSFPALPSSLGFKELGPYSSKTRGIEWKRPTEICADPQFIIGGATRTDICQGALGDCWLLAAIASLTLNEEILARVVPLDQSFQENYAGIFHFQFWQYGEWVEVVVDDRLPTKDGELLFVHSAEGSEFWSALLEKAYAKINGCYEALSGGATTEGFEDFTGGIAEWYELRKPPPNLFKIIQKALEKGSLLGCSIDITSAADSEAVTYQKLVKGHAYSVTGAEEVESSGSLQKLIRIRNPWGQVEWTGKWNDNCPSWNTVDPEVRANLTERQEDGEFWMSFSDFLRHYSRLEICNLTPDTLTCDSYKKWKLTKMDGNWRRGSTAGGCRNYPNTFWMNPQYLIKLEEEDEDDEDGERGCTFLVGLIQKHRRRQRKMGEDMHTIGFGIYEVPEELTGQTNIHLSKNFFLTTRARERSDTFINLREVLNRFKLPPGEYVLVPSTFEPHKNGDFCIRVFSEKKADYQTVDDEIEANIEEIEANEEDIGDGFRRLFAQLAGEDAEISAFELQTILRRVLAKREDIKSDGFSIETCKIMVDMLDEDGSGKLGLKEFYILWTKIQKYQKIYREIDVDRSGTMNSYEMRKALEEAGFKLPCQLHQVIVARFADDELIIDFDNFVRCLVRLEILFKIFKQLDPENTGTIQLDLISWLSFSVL
T1 sequence (Q64537 1-270 partner): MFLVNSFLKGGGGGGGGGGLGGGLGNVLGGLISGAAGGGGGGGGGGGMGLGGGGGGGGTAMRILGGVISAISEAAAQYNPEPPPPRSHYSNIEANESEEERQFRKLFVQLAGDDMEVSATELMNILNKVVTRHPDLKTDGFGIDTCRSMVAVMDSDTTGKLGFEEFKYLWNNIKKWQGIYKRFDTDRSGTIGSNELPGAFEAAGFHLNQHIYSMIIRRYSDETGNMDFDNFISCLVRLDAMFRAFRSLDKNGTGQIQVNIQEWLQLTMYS
Assay: Measurement of inhibitory activity against calpain
Type: biochemical
Settings: m-calpain purified from a brain of rat; read-out: 50% inhibitory concentration (IC50)
Method: Measurement of Inhibitory Activity against Calpain
Through the known method disclosed in Journal of Biological Chemistry, vol. 259, p.3210, (1984), m-calpain was purified from a brain of rat. The inhibitory activity against it was measured and determined according to the method disclosed in Journal of Biological Chemistry, vol. 259, p.12489 […].

SMILES: CCCC[C@H](NC(=O)[C@H](CC(C)C)NC(=O)OCc1ccccc1)C(=O)CCCc1ccco1 [Example 5]
- IC50: 10.1 µM
